# Measurements: ChEMBL document CHEMBL3352491, “Novel semicarbazides and ureas of primaquine with bulky aryl or hydroxyalkyl substituents: synthesis, cytostatic and antioxidative activity” (Eur J Med Chem, 2014)
# Target: Lipoxygenase (Glycine max) (UniProt Q39829)
# Experiment: Inhibition of soybean LOX using sodium linoleate as substrate at 100 uM by spectrophotometry
# Settings: not given; call rule not given here
row,inhibition [%],SMILES
1,84,CC(Cc1ccc(O)c(O)c1)C(C)Cc1ccc(O)c(O)c1 (configuration not stated) [NORDIHYDROGUAIARETIC ACID]

# Tested on: L1210
# Experiment: Cytostatic activity against mouse L1210 cells assessed as growth inhibition after 3 to 4 days by MTT assay
# Format: functional, cell-based
# Settings: not given
row,SMILES,IC50 [µM]
1,COc1ccc(C(=NNC(=O)NNC(=O)NCCCC(C)Nc2cc(OC)cc3cccnc23)c2ccc(OC)cc2)cc1 (configuration not stated),7.5
2,COc1cc(NC(C)CCCNC(=O)NNC(=O)Nc2ccc(Cl)c(C(F)(F)F)c2)c2ncccc2c1 (configuration not stated),19

# More lines, now with the values ahead:
row,IC50 [µM],SMILES
1,40,COc1cc(NC(C)CCCNC(=O)NCCNC(c2ccccc2)(c2ccccc2)c2ccccc2)c2ncccc2c1 (configuration not stated)
2,8.8,COc1cc(NC(C)CCCNC(=O)NNC(=O)NC(c2ccccc2)c2ccc(Cl)cc2)c2ncccc2c1 (configuration not stated)

# Tested on: MCF7
# Experiment: Cytostatic activity against human MCF7 cells assessed as growth inhibition after 3 to 4 days by MTT assay
# Format: functional, cell-based
# Settings: not given
row,SMILES,IC50 [µM]
1,COc1ccc(C(=NNC(=O)NNC(=O)NCCCC(C)Nc2cc(OC)cc3cccnc23)c2ccc(OC)cc2)cc1 (configuration not stated),1
2,COc1cc(NC(C)CCCNC(=O)NNC(=O)Nc2ccc(Cl)c(C(F)(F)F)c2)c2ncccc2c1 (configuration not stated),2

# The next lines start with the values.
row,IC50 [µM],SMILES
1,45,COc1cc(NC(C)CCCNC(=O)NCCNC(c2ccccc2)(c2ccccc2)c2ccccc2)c2ncccc2c1 (configuration not stated)
2,2,COc1cc(NC(C)CCCNC(=O)NNC(=O)NC(c2ccccc2)c2ccc(Cl)cc2)c2ncccc2c1 (configuration not stated)

# Tested on: not listed separately
# Experiment: Cytostatic activity against human MIAPaCa2 cells assessed as growth inhibition after 3 to 4 days by MTT assay
# Format: functional, cell-based
# Settings: MIA PaCa-2
row,SMILES,IC50 [µM]
1,COc1cc(NC(C)CCCNC(=O)NCCNC(c2ccccc2)(c2ccccc2)c2ccccc2)c2ncccc2c1 (configuration not stated),40
2,COc1ccc(C(=NNC(=O)NNC(=O)NCCCC(C)Nc2cc(OC)cc3cccnc23)c2ccc(OC)cc2)cc1 (configuration not stated),11
3,COc1cc(NC(C)CCCNC(=O)NNC(=O)NC(c2ccccc2)c2ccc(Cl)cc2)c2ncccc2c1 (configuration not stated),6
4,COc1cc(NC(C)CCCNC(=O)NNC(=O)Nc2ccc(Cl)c(C(F)(F)F)c2)c2ncccc2c1 (configuration not stated),18

# Tested on: CCRF-CEM
# Experiment: Cytostatic activity against human CEM cells assessed as growth inhibition after 3 to 4 days by MTT assay
# Format: functional, cell-based
# Settings: not given
row,SMILES,IC50 [µM]
1,COc1ccc(C(=NNC(=O)NNC(=O)NCCCC(C)Nc2cc(OC)cc3cccnc23)c2ccc(OC)cc2)cc1 (configuration not stated),8
2,COc1cc(NC(C)CCCNC(=O)NNC(=O)Nc2ccc(Cl)c(C(F)(F)F)c2)c2ncccc2c1 (configuration not stated),14

# Further lines, results first:
row,IC50 [µM],SMILES
1,10,COc1cc(NC(C)CCCNC(=O)NCCNC(c2ccccc2)(c2ccccc2)c2ccccc2)c2ncccc2c1 (configuration not stated)
2,5.5,COc1cc(NC(C)CCCNC(=O)NNC(=O)NC(c2ccccc2)c2ccc(Cl)cc2)c2ncccc2c1 (configuration not stated)

# Tested on: not listed separately
# Experiment: Antioxidant activity assessed as DPPH scavenging activity at 100 uM after 20 mins by spectrophotometry
# Format: physicochemical
# Settings: not given
row,SMILES,Activity
1,CC(Cc1ccc(O)c(O)c1)C(C)Cc1ccc(O)c(O)c1 (configuration not stated) [NORDIHYDROGUAIARETIC ACID],80%
2,COc1ccc(C(=NNC(=O)NNC(=O)NCCCC(C)Nc2cc(OC)cc3cccnc23)c2ccc(OC)cc2)cc1 (configuration not stated),37%
3,COc1cc(NC(C)CCCNC(=O)NNC(=O)Nc2ccc(Cl)c(C(F)(F)F)c2)c2ncccc2c1 (configuration not stated),64%

# Next, values leading:
row,Activity,SMILES
1,Not Active,COc1cc(NC(C)CCCNC(=O)NCCNC(c2ccccc2)(c2ccccc2)c2ccccc2)c2ncccc2c1 (configuration not stated)
2,30%,COc1cc(NC(C)CCCNC(=O)NNC(=O)NC(c2ccccc2)c2ccc(Cl)cc2)c2ncccc2c1 (configuration not stated)

# Tested on: SW-620
# Experiment: Cytostatic activity against human SW620 cells assessed as growth inhibition after 3 to 4 days by MTT assay
# Format: functional, cell-based
# Settings: not given
row,SMILES,IC50 [µM]
1,COc1ccc(C(=NNC(=O)NNC(=O)NCCCC(C)Nc2cc(OC)cc3cccnc23)c2ccc(OC)cc2)cc1 (configuration not stated),≥ 100
2,COc1cc(NC(C)CCCNC(=O)NNC(=O)Nc2ccc(Cl)c(C(F)(F)F)c2)c2ncccc2c1 (configuration not stated),15

# Continued, values first:
row,IC50 [µM],SMILES
1,54,COc1cc(NC(C)CCCNC(=O)NCCNC(c2ccccc2)(c2ccccc2)c2ccccc2)c2ncccc2c1 (configuration not stated)
2,3,COc1cc(NC(C)CCCNC(=O)NNC(=O)NC(c2ccccc2)c2ccc(Cl)cc2)c2ncccc2c1 (configuration not stated)

# Tested on: HeLa
# Experiment: Cytostatic activity against human HeLa cells assessed as growth inhibition after 3 to 4 days by MTT assay
# Format: functional, cell-based
# Settings: not given
row,SMILES,IC50 [µM]
1,COc1ccc(C(=NNC(=O)NNC(=O)NCCCC(C)Nc2cc(OC)cc3cccnc23)c2ccc(OC)cc2)cc1 (configuration not stated),50
2,COc1cc(NC(C)CCCNC(=O)NNC(=O)Nc2ccc(Cl)c(C(F)(F)F)c2)c2ncccc2c1 (configuration not stated),17

# Other lines, results leading:
row,IC50 [µM],SMILES
1,38,COc1cc(NC(C)CCCNC(=O)NCCNC(c2ccccc2)(c2ccccc2)c2ccccc2)c2ncccc2c1 (configuration not stated)
2,6.9,COc1cc(NC(C)CCCNC(=O)NNC(=O)NC(c2ccccc2)c2ccc(Cl)cc2)c2ncccc2c1 (configuration not stated)

# Target: Lipoxygenase (Glycine max, UniProt Q39829)
# Experiment: Inhibition of soybean LOX using sodium linoleate as substrate by spectrophotometry
# Settings: not given
row,IC50,SMILES
1,Not Active,COc1cc(NC(C)CCCNC(=O)NNC(=O)Nc2ccc(Cl)c(C(F)(F)F)c2)c2ncccc2c1 (configuration not stated)

# Same assay, conditions: read-out: IC50
row,SMILES,IC50 [µM]
1,CC(Cc1ccc(O)c(O)c1)C(C)Cc1ccc(O)c(O)c1 (configuration not stated) [NORDIHYDROGUAIARETIC ACID],28
2,COc1ccc(C(=NNC(=O)NNC(=O)NCCCC(C)Nc2cc(OC)cc3cccnc23)c2ccc(OC)cc2)cc1 (configuration not stated),75

# Results, then the molecule that gave them:
row,IC50 [µM],SMILES
1,93,COc1cc(NC(C)CCCNC(=O)NCCNC(c2ccccc2)(c2ccccc2)c2ccccc2)c2ncccc2c1 (configuration not stated)
2,70.5,COc1cc(NC(C)CCCNC(=O)NNC(=O)NC(c2ccccc2)c2ccc(Cl)cc2)c2ncccc2c1 (configuration not stated)

# Tested on: not listed separately
# Experiment: Antioxidant activity assessed as DPPH scavenging activity at 100 uM after 60 mins by spectrophotometry
# Format: physicochemical
# Settings: 1 h
row,SMILES,Activity [%]
1,CC(Cc1ccc(O)c(O)c1)C(C)Cc1ccc(O)c(O)c1 (configuration not stated) [NORDIHYDROGUAIARETIC ACID],91
2,COc1ccc(C(=NNC(=O)NNC(=O)NCCCC(C)Nc2cc(OC)cc3cccnc23)c2ccc(OC)cc2)cc1 (configuration not stated),84
3,COc1cc(NC(C)CCCNC(=O)NNC(=O)Nc2ccc(Cl)c(C(F)(F)F)c2)c2ncccc2c1 (configuration not stated),90

# Other lines, results leading:
row,Activity [%],SMILES
1,12,COc1cc(NC(C)CCCNC(=O)NCCNC(c2ccccc2)(c2ccccc2)c2ccccc2)c2ncccc2c1 (configuration not stated)
2,55,COc1cc(NC(C)CCCNC(=O)NNC(=O)NC(c2ccccc2)c2ccc(Cl)cc2)c2ncccc2c1 (configuration not stated)

# Tested on: not listed separately
# Experiment: Antioxidant activity assessed as inhibition of lipid peroxidation at 100 uM by spectrophotometry
# Format: physicochemical
# Settings: not given
row,SMILES,inhibition (INH) [%]
1,COc1ccc(C(=NNC(=O)NNC(=O)NCCCC(C)Nc2cc(OC)cc3cccnc23)c2ccc(OC)cc2)cc1 (configuration not stated),82
2,COc1cc(NC(C)CCCNC(=O)NNC(=O)Nc2ccc(Cl)c(C(F)(F)F)c2)c2ncccc2c1 (configuration not stated),63

# Second part, the molecule after the results:
row,inhibition (INH) [%],SMILES
1,89,COc1cc(NC(C)CCCNC(=O)NCCNC(c2ccccc2)(c2ccccc2)c2ccccc2)c2ncccc2c1 (configuration not stated)
2,77,COc1cc(NC(C)CCCNC(=O)NNC(=O)NC(c2ccccc2)c2ccc(Cl)cc2)c2ncccc2c1 (configuration not stated)

# Tested on: not listed separately
# Experiment: Cytostatic activity against human H460 cells assessed as growth inhibition after 3 to 4 days by MTT assay
# Format: functional, cell-based
# Settings: NCI-H460
row,SMILES,IC50 [µM]
1,COc1cc(NC(C)CCCNC(=O)NCCNC(c2ccccc2)(c2ccccc2)c2ccccc2)c2ncccc2c1 (configuration not stated),> 100
2,COc1ccc(C(=NNC(=O)NNC(=O)NCCCC(C)Nc2cc(OC)cc3cccnc23)c2ccc(OC)cc2)cc1 (configuration not stated),5
3,COc1cc(NC(C)CCCNC(=O)NNC(=O)NC(c2ccccc2)c2ccc(Cl)cc2)c2ncccc2c1 (configuration not stated),3
4,COc1cc(NC(C)CCCNC(=O)NNC(=O)Nc2ccc(Cl)c(C(F)(F)F)c2)c2ncccc2c1 (configuration not stated),13

# Tested on: not listed separately
# Experiment: Cytostatic activity against human Molt4/C8 cells assessed as growth inhibition after 3 to 4 days by MTT assay
# Format: functional, cell-based
# Settings: MOLT-4
row,SMILES,IC50 [µM]
1,COc1cc(NC(C)CCCNC(=O)NCCNC(c2ccccc2)(c2ccccc2)c2ccccc2)c2ncccc2c1 (configuration not stated),210
2,COc1ccc(C(=NNC(=O)NNC(=O)NCCCC(C)Nc2cc(OC)cc3cccnc23)c2ccc(OC)cc2)cc1 (configuration not stated),12
3,COc1cc(NC(C)CCCNC(=O)NNC(=O)NC(c2ccccc2)c2ccc(Cl)cc2)c2ncccc2c1 (configuration not stated),9.6
4,COc1cc(NC(C)CCCNC(=O)NNC(=O)Nc2ccc(Cl)c(C(F)(F)F)c2)c2ncccc2c1 (configuration not stated),19
